Measurements: paper PMC3646678, “Sodium-calcium exchangers in rat trigeminal ganglion neurons” (Molecular Pain, 2013)

These molecules were tested on T1, NCX1 (Na+-Ca2+ exchanger) (assay: fura-2 Ca2+ influx by reverse NCX activity (Li+ for Na+ substitution) in native rat TG neurons).
T1 construct: gene Slc8a1
Type: cell-based
Work on `N=C(N)SCCc1ccc(OCc2ccc([N+](=O)[O-])cc2)cc1` [KB-R7943] yielded an IC50 of 3080 nM.
`CCOc1ccc(Oc2ccc(OCc3cc(F)ccc3F)cc2)c(N)c1` [SEA0400, 2-[4-[(2,5-difluorophenyl)methoxy]phenoxy]-5-ethoxyaniline] was tested, and the IC50 was 30 nM.
In the case of `CCOC(=O)C1CSC(Cc2ccc(OCc3ccc([N+](=O)[O-])cc3)cc2)N1` (stereo not drawn) [SN-6], the IC50 is reported as 510 nM.
